# Paper PMC11019538, “Biophysics-Guided Lead Discovery of HBV Capsid Assembly Modifiers” (ACS Infectious Diseases, 2024)
# Where two headings read alike, the source gives them in different places.
# Key:
# [1] = MTT cytotoxicity, PBM cells; format: cell-based, human; settings: human
# Method: (§1) Human peripheral blood mononuclear (PBM), T lymphoblast CEM-CCRF (herein referred to as CEM cells), African green monkey kidney (Vero), or human liver carcinoma (HepG2) cells were tested via MTT assay using the CellTiter 96 Non-Radioactive Cell Proliferation (Promega) kit as previously described.[63]
# [2] = MTT cytotoxicity, CEM cells; format: cell-based, human; settings: human
# Method: as §1
# [3] = MTT cytotoxicity, Vero cells; format: cell-based, African green monkey; settings: African green monkey
# Method: as §1
# [4] = MTT cytotoxicity, HepG2 cells; format: cell-based, human; settings: human
# Method: as §1
# [5] = test system: human peripheral blood mononuclear (PBM) cells; experiment: MTT cytotoxicity, PBM cells; format: cell-based
# Method: as §1
# Cp149 capsid assembly = molecular target: T1, Cp149 capsid assembly (Hepatitis B virus genotype D subtype adw, UniProt P03147); experiment: Transmission electron microscopy of assembled Cp149 products; format: biochemical; settings: for effect on capsid morphology (TEM) / % abnormal capsids, Trial 1 / % abnormal capsids, Trial 2: 20 μM Cp149, 40 μM compound; for % abnormal capsids, Trial 1 / % abnormal capsids, Trial 2: 500 mM NaCl; for % abnormal capsids, Average: average of two trials
# T1 construct: The N-terminal domain of Cp (Cp149) is sufficient for forming regular capsids; made in house; host or cells: E. coli BL21(DE3)
# T1 sequence (P03147 1-149): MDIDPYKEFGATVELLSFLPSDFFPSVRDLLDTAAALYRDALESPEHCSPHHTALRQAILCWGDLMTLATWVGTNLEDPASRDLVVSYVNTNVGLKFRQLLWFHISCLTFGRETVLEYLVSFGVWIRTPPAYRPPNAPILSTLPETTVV
# Method: The assembled samples of Cp149 were prepared as described in the Size Exclusion Chromatography section. Eight μL of each sample was added onto the 300 mesh Lacey Formvar carbon–copper grids (Ted Pella, Inc.) and allowed to sit for 1.5 min. The grid was then rinsed in 500 mL of deionized water for 10 s twice to rinse off the extra buffer on the grid. After drying, the sample was stained with 8 μL of 2% uranyl acetate for 1 min. After removal and drying of the uranyl acetate solution, the sample was imaged with a Hitachi HT7700 electron microscope at an accelerating voltage of 120 kV, at the IMat Materials Characterization Facility of Georgia Institute of Technology. The images underwent processing using ImageJ software. Initially, to minimize noise, a Gaussian blur filter was applied. These images were then converted into an 8 bit binary format for edge detection. ImageJ identified particles ranging in size from 800 to 2000 pixels. An example of a processed image can be seen in Figure S14. The circularity of each particle was calculated using the formula circularity = 4π × area × perimeter^–2. […] A total of four images, each containing a minimum of 100 capsids, were analyzed to determine the proportion of the abnormal capsids. The entire experiment was duplicated, and the outcomes from both sets were then averaged.
# Cp149 = molecular target: T2, Cp149 (Hepatitis B virus genotype D subtype adw, UniProt P03147); experiment: Tryptophan fluorescence titration; format: binding; settings: for tryptophan fluorescence quenching: 20 μM Cp149, compound up to 100 μM
# T2 construct: The N-terminal domain of Cp (Cp149) is sufficient for forming regular capsids; made in house; host or cells: E. coli BL21(DE3)
# T2 sequence (P03147 1-149): as above
# Method: Each of the compounds was titrated into 100 μL of the protein solution to final concentrations of 0, 5, 10, 20, 50, and 100 μM in a clear bottom 96-well plate. […] Tryptophan fluorescence levels were measured by exciting the samples at 285 nm and measuring the emission at 340 nm with the Varioskan Flash (Thermo Fisher) plate reader. […] Fluorescence quenching was calculated by taking the difference of net fluorescence levels of each concentration and of the 0 μM sample. All the samples were run in triplicate, and the results were averaged. The dissociation constants (KD) were fitted by the one-site-specific binding model of GraphPad.[45]
# [6] = test system: African green monkey kidney (Vero) cells; experiment: MTT cytotoxicity, Vero cells; format: cell-based; settings: Vero cells
# Method: as §1
# [7] = test system: human liver carcinoma (HepG2) cells; experiment: MTT cytotoxicity, HepG2 cells; format: cell-based; settings: HepG2 cells
# Method: as §1
# [8] = test system: HBV DNA replication in HepAD38 cells; experiment: HBV DNA replication inhibition assay in HepAD38 cells (7 days, PCR of supernatant DNA); format: cell-based, hepatitis B virus; settings: for inhibition at 10 µM / EC50 / inhibition at 200 µM: Hepatitis B virus; for inhibition at 200 µM: read-out: Anti-HBV activity in HepAD38 cells, % Inh. at 200 µM ± SD; for HBV DNA inhibition (%) at 10 µM: first round of selected compounds
# Method: HepAD38 cells were seeded at 50,000 cells/well in collagen-coated 96-well plates. […] The experiment lasted 7 days. On day 7, total DNA was purified from the supernatant using a commercially available kit (DNeasy 96 Blood & Tissue kit, Qiagen). The HBV DNA was amplified in a polymerase chain reaction assay using LightCycler 480 II (Roche), as previously described.[63] All samples were tested in duplicate.
# [9] = test system: PBM, CEM, Vero and HepG2 cells; experiment: MTT cytotoxicity, four cell lines taken together; format: cell-based
# Method: as §1
# [10] = MTS cytotoxicity (Table S4)
# [11] = test system: T lymphoblast CEM-CCRF (CEM) cells; experiment: MTT cytotoxicity, CEM cells; format: cell-based, human
# Method: as §1
# [12] = peripheral blood mononuclear (PBM) cells
# [13] = T lymphoblast CEM-CCRF (CEM) cells
# [14] = HepAD38 cells, 10 μM, trial 1, read-out: % HBV DNA Inh. at 10 μM, trial 1
# [15] = HepAD38 cells, 10 μM, trial 2, read-out: % HBV DNA Inh. at 10 μM, trial 2
# [16] = HepAD38 cells, 10 µM, trial 3, read-out: % HBV DNA Inh. at 10 µM, trial 3
# [17] = HepAD38 cells, 10 µM, trial 4, read-out: % HBV DNA Inh. at 10 µM, trial 4
# [18] = HepAD38 cells, 10 μM, read-out: % inhibition in at least one of the trials
# [19] = HepAD38 cells, trial 1, read-out: EC50, trial 1
# [20] = HepAD38 cells, trial 2, read-out: EC50, trial 2
# [21] = HepAD38 cells, trial 3, read-out: EC50, trial 3
# [22] = HepAD38 cells, trial 4, read-out: EC50, trial 4
# [23] = HePAD38, additional testing, Table S4
# [24] = HePAD38, additional testing, Table S4, read-out: Anti-HBV activity in HepAD38 cells, EC50
SMILES,"CC50 [1, 12]",percent cytotoxicity (cell growth inhibition) at 100 µM [5],effect on capsid morphology (TEM) (Cp149 capsid assembly),"% abnormal capsids, Trial 1 (Cp149 capsid assembly)","% abnormal capsids, Trial 2 (Cp149 capsid assembly)","% abnormal capsids, Average (Cp149 capsid assembly)","CC50 [2, 13]",tryptophan fluorescence quenching (Cp149),CC50 ([3]; Vero cells (kidney)),CC50 ([4]; HepG2 cells (liver carcinoma)),"inhibition at 10 µM [8, 14]","inhibition at 10 µM [8, 15]","inhibition at 10 µM [8, 16]","inhibition at 10 µM [8, 17]","inhibition at 10 µM [8, 18]","EC50 [8, 19]","EC50 [8, 20]","EC50 [8, 21]","EC50 [8, 22]","% cytotoxicity at 100 µM (MTT), CEM cells [11]",other results
"C[C@@H]1C[C@@H]([C@H](O)CC2CC(=O)NC(=O)C2)C(=O)[C@@H](C)C1 [Cycloheximide, reference compound]",,,,,,,,,,,,,,,,,,,,,CC50 [1]: 0.9 µM; CC50 [2]: 0.2 µM; CC50 ([3]; Vero cells): 0.2 µM; CC50 ([4]; HepG2 cells): 0.3 µM
Cc1nc(-c2c(-c3ccccc3)ncn2Cc2cccc3[nH]ccc23)c[nH]1 [GT-40],> 100 µM,19%,no apparent effect,8%,11%,10%,77 µM,No fluorescence quenching was observed,> 100 µM,> 100 µM,55%,50%,< 1%,< 1%,> 50%,< 10 µM,10 µM,> 10 µM,> 100 µM,,"KD (Cp149; one site specific binding model, Table S7): No binding; % cytotoxicity (MTT) at 100 µM [6]: 39%; percent cytotoxicity (MTT) at 100 µM, HepG2 [7]: 30%"
Cc1ccc2[nH]c(CCNc3nccc(-c4ccccn4)n3)nc2c1C [GT-47],> 100 µM,16%,induced misdirected products,28%,23%,26%,> 100 µM,reproducible but modest fluorescence quenching,> 100 µM,18 µM,49%,49%,14%,< 1%,> 50%,≥ 10 µM,≥ 10 µM,> 10 µM,> 100 µM,48%,"IC50 (in vitro): > 200 µM; toxicity in at least one cell line tested [9]: 16 to 18 µM; MTS cytotoxicity, % Inh. at 200 µM [10]: < 1%; % cytotoxicity (MTT) at 100 µM [6]: 31%; inhibition at 200 µM [8, 23]: < 1%; EC50 [8, 24]: > 200 µM"
NCCCC(=O)NCc1nc(-c2cccc(F)c2)c(-c2ccccn2)[nH]1 [GT-45],> 100 µM,41%,induced misdirected products,40%,35%,38%,> 100 µM,reproducible but modest fluorescence quenching,66 µM,> 100 µM,50%,49%,< 1%,< 1%,> 50%,≥ 10 µM,≥ 10 µM,> 10 µM,> 100 µM,36%,"percent cytotoxicity (MTT) at 100 µM, HepG2 [7]: 41%"
O=C(NCc1ccc(-c2cccnc2)nc1)c1ccc2nccnc2c1 [GT-46],> 100 µM,20%,,,78%,74%,38 µM,moderate fluorescence quenching,53 µM,82 µM,49%,49%,2%,39%,> 50%,≥ 10 µM,≥ 10 µM,> 10 µM,> 100 µM,,"IC50 (in vitro): > 200 µM; MTS cytotoxicity, % Inh. at 200 µM [10]: < 1%; Kd (Cp149; KD, one site specific binding model, Table S7): 263 µM; Kd (Cp149; dissociation constant (KD), estimated, 20 μM Cp149, single-site fit): 263 µM; inhibition at 200 µM [8, 23]: 25.6 ± 2.5%; EC50 [8, 24]: > 200 µM"
CCOC(=O)c1cc(-c2cc(C(=O)OCC)c3ccccc3n2)nc2ccccc12 [GT-33],> 100 µM,5.6%,induced misdirected products,31%,26%,29%,> 100 µM,reproducible but modest fluorescence quenching,76 µM,86 µM,60%,37%,< 1%,< 1%,> 50%,< 10 µM,> 10 µM,> 10 µM,> 100 µM,32%,
O=C(OCc1ccc(-c2cnc3ccccc3n2)cc1)c1cccs1 [GT-32],85 µM,,,76%,85%,,52 µM,moderate fluorescence quenching,44 µM,59 µM,48%,< 1%,< 1%,< 1%,> 50%,≥ 10 µM,> 10 µM,> 10 µM,> 100 µM,,"Kd (Cp149; 20 μM Cp149, single-site fit, read-out: dissociation constant (KD), estimated): 124 µM; Kd (Cp149; one site specific binding model, Table S7, read-out: KD): 124 µM"
Clc1ccccc1C=Cc1ccnc2ccccc12 [GT-3],,,,,,,,,,,,,,,,,,,,,"CC50 [5]: 34 µM; CC50 [11]: 15.4 µM; CC50 [6]: 27 µM; CC50 [7]: 51.2 µM; HBV DNA inhibition (%) at 10 µM ([8]; HepAD38 cells, 10 µM): 40.4%"
Cc1c(CCN)ccc2c1[nH]c1ccccc12 [GT-6],,,,,,,,,,,,,,,,,,,,,"CC50 [5]: 47.7 µM; CC50 [11]: 18.7 µM; CC50 [6]: 42.6 µM; CC50 [7]: 14.9 µM; HBV DNA inhibition (%) at 10 µM ([8]; HepAD38 cells, 10 µM): 27.2%"
NCc1cccc(Oc2ccccc2)c1 [GT-21],,,,,,,,,,,,,,,,,,,,,"CC50 [5]: > 100 µM; CC50 [11]: 18.2 µM; CC50 [6]: 49.6 µM; CC50 [7]: > 100 µM; HBV DNA inhibition (%) at 10 µM ([8]; HepAD38 cells, 10 µM): < 1%"
